Measured values from paper PMC9007951, “Systematically evaluating DOTATATE and FDG as PET immuno-imaging tracers of cardiovascular inflammation” (Scientific Reports, 2022).
Like-named read-outs stand apart in the source and are kept apart here.

Assay: Timed organ biodistribution of [^64Cu]Cu-DOTATATE by ex vivo gamma counting
Assay type: in vivo, mice
Conditions: mouse, intravenous, 1.85 MBq, total radioactivity, median (IQR); for tissue uptake at 1 min: 1 min after injection; for tissue uptake at 5 min: 5 min after injection; for tissue uptake at 0.25 h: 15 min after injection; for tissue uptake at 0.5 h: 30 min after injection; for tissue uptake at 2 h: 120 min after injection; for tissue uptake at 1 h: 60 min after injection
Protocol: Wild-type and atherosclerotic animals were injected with approximately 1.85 MBq of [^64Cu]Cu-DOTATATE and euthanized at either 1, 5, 15, 30, 60 or 120 min after injection (Supplementary Fig. S1A) to evaluate the tracer’s biodistribution. After euthanasia, an insulin syringe was used to collect blood samples from the right ventricle. Blood samples were used for the establishment of pharmacokinetics profile. Mice were then perfused with 20 mL of phosphate-buffered saline (PBS) and tissues of interest (heart, aorta, bone marrow, spleen, liver, stomach, bladder, kidneys, intestines, lungs, adrenal gland, muscles and pancreas) were harvested. Tissues were blotted for gamma counting on a Wizard2 2480 automatic gamma counter (Perkin Elmer, Waltham, MA). Values were corrected for decay and normalized to tissue weight to express radioactivity concentration as percentage injected dose per gram (%ID/g). […] To investigate the tracer’s distribution within different blood compartments, after gamma counting, 100 μL of blood were spun down at 2000 g for 15 min at 4 °C. Plasma (supernatant) and cells (pellet) were gamma counted and expressed as percentage of total activity. The remainder of the blood was separated using Lymphoprep density gradient medium (Nycomed Pharma, Zurich, Switzerland) following manufacturer’s instructions. Percentage of activity in mononuclear and polynuclear cells was calculated.

[1] = abdominal aorta, female Apoe^-/- mice 12 weeks on Western Diet, N=3-8, read-out: Tissue radioactivity, abdominal aorta
[2] = abdominal aorta, female C57BL/6 mice, N=3-7, read-out: Tissue radioactivity, abdominal aorta
[3] = adrenal gland, female Apoe^-/- mice 12 weeks on Western Diet, N=3-8, read-out: Tissue radioactivity, adrenal gland
[4] = adrenal gland, female C57BL/6 mice, N=3-7, read-out: Tissue radioactivity, adrenal gland
[5] = aortic arch, female Apoe^-/- mice 12 weeks on Western Diet, N=3-8, read-out: Tissue radioactivity, aortic arch
[6] = aortic arch, female C57BL/6 mice, N=3-7, read-out: Tissue radioactivity, aortic arch
[7] = bladder, female Apoe^-/- mice 12 weeks on Western Diet, N=3-8, read-out: Tissue radioactivity, bladder
[8] = bladder, female C57BL/6 mice, N=3-7, read-out: Tissue radioactivity, bladder
[9] = bone marrow, female Apoe^-/- mice 12 weeks on Western Diet, N=3-8, read-out: Tissue radioactivity, bone marrow
[10] = bone marrow, female C57BL/6 mice, N=3-7, read-out: Tissue radioactivity, bone marrow
[11] = fat, female Apoe^-/- mice 12 weeks on Western Diet, N=3-8, read-out: Tissue radioactivity, fat
[12] = fat, female C57BL/6 mice, N=3-7, read-out: Tissue radioactivity, fat
[13] = heart, female Apoe^-/- mice 12 weeks on Western Diet, N=3-8, read-out: Tissue radioactivity, heart
[14] = heart, female C57BL/6 mice, N=3-7, read-out: Tissue radioactivity, heart
[15] = kidneys, female Apoe^-/- mice 12 weeks on Western Diet, N=3-8, read-out: Tissue radioactivity, kidneys
[16] = kidneys, female C57BL/6 mice, N=3-7, read-out: Tissue radioactivity, kidneys
[17] = large intestine, female Apoe^-/- mice 12 weeks on Western Diet, N=3-8, read-out: Tissue radioactivity, large intestine
[18] = large intestine, female C57BL/6 mice, N=3-7, read-out: Tissue radioactivity, large intestine
[19] = liver, female Apoe^-/- mice 12 weeks on Western Diet, N=3-8, read-out: Tissue radioactivity, liver

- tissue uptake at 1 min [1]: 3.1 %ID/g
- tissue uptake at 5 min [1]: 3.2 %ID/g
- tissue uptake at 0.25 h [1]: 2.1 %ID/g
- tissue uptake at 0.5 h [1]: 2.5 %ID/g
- tissue uptake at 2 h [1]: 2.1 %ID/g
- tissue uptake at 1 min [2]: 5.1 %ID/g
- tissue uptake at 5 min [2]: 3.8 %ID/g
- tissue uptake at 0.25 h [2]: 2.4 %ID/g
- tissue uptake at 0.5 h [2]: 1.7 %ID/g
- tissue uptake at 1 h [2]: 1.3 %ID/g
- tissue uptake at 2 h [2]: 0.7 %ID/g
- tissue uptake at 1 min [3]: 1.4 %ID/g
- tissue uptake at 5 min [3]: 1.2 %ID/g
- tissue uptake at 0.25 h [3]: 1.4 %ID/g
- tissue uptake at 0.5 h [3]: 1.5 %ID/g
- tissue uptake at 1 h [3]: 1.4 %ID/g
- tissue uptake at 2 h [3]: 1.1 %ID/g
- tissue uptake at 0.25 h [4]: 1.7 %ID/g
- tissue uptake at 0.5 h [4]: 1.6 %ID/g
- tissue uptake at 1 h [4]: 1.6 %ID/g
- tissue uptake at 2 h [4]: 0.6 %ID/g
- tissue uptake at 1 min [5]: 2.9 %ID/g
- tissue uptake at 0.25 h [5]: 1.7 %ID/g
- tissue uptake at 0.5 h [5]: 1.7 %ID/g
- tissue uptake at 1 min [6]: 2.8 %ID/g
- tissue uptake at 0.25 h [6]: 1.3 %ID/g
- tissue uptake at 0.5 h [6]: 1.1 %ID/g
- tissue uptake at 1 h [6]: 1.1 %ID/g
- tissue uptake at 2 h [6]: 1.2 %ID/g
- tissue uptake at 1 min [7]: 1.7 %ID/g
- tissue uptake at 5 min [7]: 98.7 %ID/g
- tissue uptake at 0.25 h [7]: 38.9 %ID/g
- tissue uptake at 0.5 h [7]: 2.9 %ID/g
- tissue uptake at 1 h [7]: 4.7 %ID/g
- tissue uptake at 2 h [7]: 2.4 %ID/g
- tissue uptake at 1 min [8]: 4.6 %ID/g
- tissue uptake at 5 min [8]: 36.4 %ID/g
- tissue uptake at 0.25 h [8]: 7.9 %ID/g
- tissue uptake at 0.5 h [8]: 6.8 %ID/g
- tissue uptake at 2 h [8]: 10.4 %ID/g
- tissue uptake at 1 min [9]: 3.1 %ID/g
- tissue uptake at 5 min [9]: 2.3 %ID/g
- tissue uptake at 0.25 h [9]: 2.6 %ID/g
- tissue uptake at 2 h [9]: 2.7 %ID/g
- tissue uptake at 5 min [10]: 4.3 %ID/g
- tissue uptake at 0.25 h [10]: 3.5 %ID/g
- tissue uptake at 1 h [10]: 2.1 %ID/g
- tissue uptake at 2 h [10]: 2.5 %ID/g
- tissue uptake at 1 min [11]: 0.3 %ID/g
- tissue uptake at 5 min [11]: 0.4 %ID/g
- tissue uptake at 0.25 h [11]: 0.4 %ID/g
- tissue uptake at 0.5 h [11]: 0.3 %ID/g
- tissue uptake at 1 h [11]: 0.2 %ID/g
- tissue uptake at 2 h [11]: 0.2 %ID/g
- tissue uptake at 1 min [12]: 1.1 %ID/g
- tissue uptake at 5 min [12]: 1.3 %ID/g
- tissue uptake at 0.25 h [12]: 0.8 %ID/g
- tissue uptake at 0.5 h [12]: 0.5 %ID/g
- tissue uptake at 1 h [12]: 0.3 %ID/g
- tissue uptake at 2 h [12]: 0.2 %ID/g
- tissue uptake at 1 min [13]: 2.3 %ID/g
- tissue uptake at 5 min [13]: 1.4 %ID/g
- tissue uptake at 0.25 h [13]: 1.1 %ID/g
- tissue uptake at 1 h [13]: 1.3 %ID/g
- tissue uptake at 2 h [13]: 1.4 %ID/g
- tissue uptake at 1 min [14]: 3.8 %ID/g
- tissue uptake at 5 min [14]: 2.1 %ID/g
- tissue uptake at 0.25 h [14]: 1.1 %ID/g
- tissue uptake at 1 h [14]: 0.8 %ID/g
- tissue uptake at 2 h [14]: 0.7 %ID/g
- tissue uptake at 1 min [15]: 15.6 %ID/g
- tissue uptake at 5 min [15]: 22.9 %ID/g
- tissue uptake at 0.25 h [15]: 13.2 %ID/g
- tissue uptake at 0.5 h [15]: 8.8 %ID/g
- tissue uptake at 1 min [16]: 26.8 %ID/g
- tissue uptake at 5 min [16]: 20.5 %ID/g
- tissue uptake at 0.25 h [16]: 11.5 %ID/g
- tissue uptake at 0.5 h [16]: 8.2 %ID/g
- tissue uptake at 1 h [16]: 6.1 %ID/g
- tissue uptake at 1 min [17]: 1.3 %ID/g
- tissue uptake at 5 min [17]: 1.3 %ID/g
- tissue uptake at 0.5 h [17]: 2.8 %ID/g
- tissue uptake at 2 h [17]: 3.8 %ID/g
- tissue uptake at 1 min [18]: 2.7 %ID/g
- tissue uptake at 5 min [18]: 1.6 %ID/g
- tissue uptake at 0.5 h [18]: 1.7 %ID/g
- tissue uptake at 1 h [18]: 3 %ID/g
- tissue uptake at 2 h [18]: 3.1 %ID/g
- tissue uptake at 1 min [19]: 4.4 %ID/g
- tissue uptake at 5 min [19]: 4.9 %ID/g
- tissue uptake at 0.25 h [19]: 8.6 %ID/g
SMILES: C[C@@H](O)[C@H](NC(=O)[C@@H]1CSSC[C@H](NC(=O)[C@@H](Cc2ccccc2)NC(=O)CN2CCN(CC(=O)O)CCN(CC(=O)O)CCN(CC(=O)O)CC2)C(=O)N[C@@H](Cc2ccc(O)cc2)C(=O)N[C@H](Cc2c[nH]c3ccccc23)C(=O)N[C@@H](CCCCN)C(=O)N[C@@H]([C@@H](C)O)C(=O)N1)C(=O)O [[^64Cu]Cu-DOTATATE, metal not drawn]
